Test results reported in the NIST ThermoML archive (doi:10.1016/j.tca.2007.03.018).
Numbers after ± are expanded uncertainties.

Test: molar heat capacity at saturation pressure
Conditions: Large sample (1 g) DSC

Molecule C1C2CC3CC1CC(C14CC5CC(CC(C5)C1)C4)(C2)C3 [1,1'-biadamantane] has a molar heat capacity (368.9 K, Crystal 2) of 422.5 ± 10 J/K/mol, a molar heat capacity (372.5 K, Crystal 2) of 428.1 ± 10 J/K/mol and a molar heat capacity (376.1 K, Crystal 2) of 435.3 ± 11 J/K/mol. For the same molecule, the molar heat capacity (379.7 K, Crystal 2) was 439.7 ± 11 J/K/mol, the molar heat capacity (383.3 K, Crystal 2) was 443.1 ± 11 J/K/mol and the molar heat capacity (386.9 K, Crystal 2) was 448.3 ± 11 J/K/mol. For the same molecule, the molar heat capacity (390.4 K, Crystal 2) was 452.1 ± 11 J/K/mol, the molar heat capacity (394 K, Crystal 2) was 456.9 ± 11 J/K/mol and the molar heat capacity (397.6 K, Crystal 2) was 460.5 ± 11 J/K/mol. For the same molecule, the molar heat capacity (401.2 K, Crystal 2) was 466.4 ± 11 J/K/mol, the molar heat capacity (404.8 K, Crystal 2) was 471.7 ± 12 J/K/mol and the molar heat capacity (408.4 K, Crystal 2) was 471.9 ± 12 J/K/mol. It also gave a molar heat capacity (412 K, Crystal 2) of 478.1 ± 12 J/K/mol, a molar heat capacity (415.6 K, Crystal 2) of 481.4 ± 12 J/K/mol and a molar heat capacity (419.2 K, Crystal 2) of 490.8 ± 12 J/K/mol. The molar heat capacity (422.8 K, Crystal 2) was 493.1 ± 12 J/K/mol, the molar heat capacity (426.4 K, Crystal 2) was 496.1 ± 12 J/K/mol and the molar heat capacity (430 K, Crystal 2) was 501.3 ± 12 J/K/mol. For the same molecule, the molar heat capacity (433.6 K, Crystal 2) was 507.8 ± 12 J/K/mol, the molar heat capacity (437.1 K, Crystal 2) was 513 ± 13 J/K/mol and the molar heat capacity (440.7 K, Crystal 2) was 519.9 ± 13 J/K/mol. It also gave a molar heat capacity (444.3 K, Crystal 2) of 525 ± 13 J/K/mol, a molar heat capacity (447.9 K, Crystal 2) of 529.9 ± 13 J/K/mol and a molar heat capacity (451.5 K, Crystal 2) of 537.9 ± 13 J/K/mol. It also gave a molar heat capacity (455.1 K, Crystal 2) of 544.8 ± 13 J/K/mol, a molar heat capacity (458.7 K, Crystal 2) of 549.6 ± 14 J/K/mol and a molar heat capacity (462.3 K, Crystal 2) of 556.8 ± 14 J/K/mol. It also gave a molar heat capacity (465.9 K, Crystal 2) of 563.6 ± 14 J/K/mol, a molar heat capacity (469.5 K, Crystal 2) of 572.6 ± 14 J/K/mol and a molar heat capacity (473 K, Crystal 2) of 579.1 ± 14 J/K/mol. It also gave a molar heat capacity (476.6 K, Crystal 2) of 584.1 ± 14 J/K/mol, a molar heat capacity (480.2 K, Crystal 2) of 587.8 ± 14 J/K/mol and a molar heat capacity (483.8 K, Crystal 2) of 600.3 ± 15 J/K/mol. It also gave a molar heat capacity (487.4 K, Crystal 2) of 611.9 ± 15 J/K/mol, a molar heat capacity (491 K, Crystal 2) of 607.2 ± 15 J/K/mol and a molar heat capacity (494.6 K, Crystal 2) of 617.9 ± 15 J/K/mol. For the same molecule, the molar heat capacity (495.5 K, Crystal 2) was 621.1 ± 15 J/K/mol, the molar heat capacity (496.4 K, Crystal 2) was 621.4 ± 15 J/K/mol and the molar heat capacity (497.3 K, Crystal 2) was 621.7 ± 15 J/K/mol. For the same molecule, the molar heat capacity (498.1 K, Crystal 2) was 626.7 ± 15 J/K/mol, the molar heat capacity (499 K, Crystal 2) was 629.7 ± 15 J/K/mol and the molar heat capacity (499.9 K, Crystal 2) was 632.7 ± 16 J/K/mol. For the same molecule, the molar heat capacity (500.8 K, Crystal 2) was 635.2 ± 16 J/K/mol, the molar heat capacity (501.7 K, Crystal 2) was 637.1 ± 16 J/K/mol and the molar heat capacity (502.6 K, Crystal 2) was 636.9 ± 16 J/K/mol. The molar heat capacity (503.5 K, Crystal 2) was 639 ± 16 J/K/mol, the molar heat capacity (504.4 K, Crystal 2) was 644.5 ± 16 J/K/mol and the molar heat capacity (505.3 K, Crystal 2) was 647.9 ± 16 J/K/mol. The molar heat capacity (506.2 K, Crystal 2) was 659.8 ± 16 J/K/mol, the molar heat capacity (507 K, Crystal 2) was 693.8 ± 17 J/K/mol and the molar heat capacity (507.9 K, Crystal 2) was 741.7 ± 18 J/K/mol. For the same molecule, the molar heat capacity (508.7 K, Crystal 2) was 773.6 ± 19 J/K/mol, the molar heat capacity (509.6 K, Crystal 1) was 792.3 ± 19 J/K/mol and the molar heat capacity (510.6 K, Crystal 1) was 763.7 ± 19 J/K/mol. The molar heat capacity (511.5 K, Crystal 1) was 724.5 ± 18 J/K/mol, the molar heat capacity (512.4 K, Crystal 1) was 700.9 ± 17 J/K/mol and the molar heat capacity (513.3 K, Crystal 1) was 684.2 ± 17 J/K/mol. The molar heat capacity (514.2 K, Crystal 1) was 674.9 ± 16 J/K/mol, the molar heat capacity (515.2 K, Crystal 1) was 668.9 ± 16 J/K/mol and the molar heat capacity (516.1 K, Crystal 1) was 662.2 ± 16 J/K/mol. It also gave a molar heat capacity (517 K, Crystal 1) of 655.5 ± 16 J/K/mol, a molar heat capacity (517.9 K, Crystal 1) of 658.8 ± 16 J/K/mol and a molar heat capacity (518.8 K, Crystal 1) of 647.2 ± 16 J/K/mol. For the same molecule, the molar heat capacity (519.7 K, Crystal 1) was 637.1 ± 16 J/K/mol, the molar heat capacity (520.6 K, Crystal 1) was 640.5 ± 16 J/K/mol and the molar heat capacity (522.4 K, Crystal 1) was 641.1 ± 16 J/K/mol. For the same molecule, the molar heat capacity (523.3 K, Crystal 1) was 647.5 ± 16 J/K/mol, the molar heat capacity (524.2 K, Crystal 1) was 653.8 ± 16 J/K/mol and the molar heat capacity (525.1 K, Crystal 1) was 653.9 ± 16 J/K/mol. It also gave a molar heat capacity (526.8 K, Crystal 1) of 660.2 ± 16 J/K/mol, a molar heat capacity (527.7 K, Crystal 1) of 653 ± 16 J/K/mol and a molar heat capacity (528.6 K, Crystal 1) of 663.2 ± 16 J/K/mol. It also gave a molar heat capacity (529.5 K, Crystal 1) of 664.4 ± 16 J/K/mol, a molar heat capacity (530.4 K, Crystal 1) of 664.4 ± 16 J/K/mol and a molar heat capacity (531.3 K, Crystal 1) of 663.3 ± 16 J/K/mol. The molar heat capacity (532.2 K, Crystal 1) was 664.8 ± 16 J/K/mol, the molar heat capacity (533.1 K, Crystal 1) was 667.8 ± 16 J/K/mol and the molar heat capacity (534 K, Crystal 1) was 666.7 ± 16 J/K/mol. For the same molecule, the molar heat capacity (534.9 K, Crystal 1) was 674.5 ± 16 J/K/mol, the molar heat capacity (535.8 K, Crystal 1) was 671 ± 16 J/K/mol and the molar heat capacity (536.7 K, Crystal 1) was 671.7 ± 16 J/K/mol. The molar heat capacity (537.6 K, Crystal 1) was 675 ± 16 J/K/mol, the molar heat capacity (538.5 K, Crystal 1) was 681.1 ± 17 J/K/mol and the molar heat capacity (539.4 K, Crystal 1) was 676.6 ± 17 J/K/mol. The molar heat capacity (540.3 K, Crystal 1) was 677 ± 17 J/K/mol, the molar heat capacity (543.1 K, Crystal 1) was 681.3 ± 17 J/K/mol and the molar heat capacity (544.9 K, Crystal 1) was 692.5 ± 17 J/K/mol. The molar heat capacity (546.7 K, Crystal 1) was 693.7 ± 17 J/K/mol, the molar heat capacity (548.5 K, Crystal 1) was 702.1 ± 17 J/K/mol and the molar heat capacity (550.3 K, Crystal 1) was 709.8 ± 17 J/K/mol. The molar heat capacity (552.1 K, Crystal 1) was 724.2 ± 18 J/K/mol, the molar heat capacity (553.9 K, Crystal 1) was 741 ± 18 J/K/mol and the molar heat capacity (555.7 K, Crystal 1) was 752.9 ± 18 J/K/mol. The molar heat capacity (557.4 K, Crystal 1) was 744.3 ± 18 J/K/mol, the molar heat capacity (559.2 K, Crystal 1) was 772.6 ± 19 J/K/mol and the molar heat capacity (561 K, Crystal 1) was 802.7 ± 20 J/K/mol.
